Measurements reported in patent publication US9156801B2, “2-substituted oleanolic acid derivative, method preparing for same, and application thereof” (HANGZHOU BENSHENG PHARMACEUTICAL CO., LTD., priority 2011, dated 2015).
Converted amounts (≈) assume the structure as drawn.

Experiments:
H9 cell line = test: leukemia cell growth inhibition, MTT; format: cell-based; details: Homo sapiens; for IC50: H9, 72 h; for inhibition at 16 µg/mL: H9, 16 μg/mL compound, 72 h, read-out: IR (cell proliferation inhibition rate)
Description: (§1) Leukemia cell lines: leukemia cell lines: K562/adr (drug-resistant, chronic myeloid leukemia, CML), NB4 (acute promyelocytic leukemia, AML), Kasumi-1 (acute myeloid leukemia M2 type, AML-M2), Jurkat (acute lymphoblastic leukemia, ALL), all of which are donated by Cancer Research Institute of Zhejiang University, China; and H9 (acute lymphoblastic leukemia, ALL), which is purchased from China Center for Type Culture Collection (CCTCC).
(§2) Obtaining 6000 well-growing leukemia cells and inoculating them into wells of a 96-well cell culture plate. The culture medium is the 1640 cell culture medium containing 10% fetal bovine serum. After adding the 2-substituted oleanolic acid derivatives of different concentrations and mixing uniformly, placing the plate in a carbon dioxide cell incubator (5% CO2) at 37° C. and incubated for 72 hours. Then the relative number of viable cells is determined by MTT method. In this experiment, cell proliferation inhibition rate in control group (not treated with any compound) is set as 0%.

Jurkat cell line = test: leukemia cell growth inhibition, MTT; format: cell-based; details: Homo sapiens, 72 h; for inhibition at 16 µg/mL: 16 μg/mL compound, read-out: IR (cell proliferation inhibition rate)
Description: as §1, §2

K562/adr cell line = test: leukemia cell growth inhibition, MTT; format: cell-based; details: Homo sapiens, 72 h; for IC50: K562/Adr; for inhibition at 16 µg/mL: K562/adr, 16 μg/mL compound, read-out: IR (cell proliferation inhibition rate)
Description: as §1, §2

Kasumi-1 cell line = test: leukemia cell growth inhibition, MTT; format: cell-based; details: Homo sapiens; for inhibition at 16 µg/mL: Kasumi-1, 16 μg/mL compound, 72 h, read-out: IR (cell proliferation inhibition rate); for IC50: Kasumi-1, 72 h
Description: as §1, §2

NB4 cell line = test: leukemia cell growth inhibition, MTT; format: cell-based; details: Homo sapiens, NB-4; for inhibition at 16 µg/mL: NB4, 16 μg/mL compound, 72 h, read-out: IR (cell proliferation inhibition rate); for IC50: NB4, 72 h
Description: as §1, §2

RPMI8226 cell line = test: multiple myeloma cell growth inhibition, MTT; format: cell-based; details: Homo sapiens, RPMI-8226; for inhibition at 16 µg/mL: RPMI8226, 16 μg/mL compound, 72 h, read-out: IR (cell proliferation inhibition rate); for IC50: RPMI8226, 72 h
Experimental: Multiple myeloma cell lines: RPMI8226 (multiple myeloma), purchased from Fuxiang Bio-tech Co. Ltd., Shanghai, China.
Obtaining 6000 well-growing cells as above and inoculating them into wells of a 96-well cell culture plate. The culture medium is the 1640 cell culture medium containing 10% fetal bovine serum. After adding the 2-substituted oleanolic acid derivatives of different concentrations and mixing uniformly, placing the plate in a carbon dioxide cell incubator (5% CO2) at 37° C. and incubated for 72 hours. Then the relative number of viable cells is determined by MTT method. In this experiment, cell proliferation inhibition rate in control group (not treated with any compound) is set as 0%.

Hep G2 cell line = test: solid tumor cell growth inhibition, MTT; format: cell-based, human; details: Homo sapiens; for inhibition at 16 µg/mL: HepG2, 72 h, Hep G2, 16 μg/mL compound, 72 h, read-out: IR (cell proliferation inhibition rate); for IC50: HepG2, Hep G2, 72 h
Experimental: (§3) Hep-2 (laryngeal carcinoma), A549 (human lung cancer), CaES-17 (esophageal cancer cell), PC-3 (prostate cancer), CNE (nasopharyngeal carcinoma cell), and SK-OV-3 (ovarian cancer cell), all of which are purchased from China Center For Type Culture Collection; RKO (human colon adenocarcinoma cell), MGC 803 (human gastric cancer cell), MG63 (osteosarcoma) and U87 MG (malignant glioma cell), all of which are purchased from Fuxiang Bio-tech Co. Ltd., Shanghai, China; PANC-1 (pancreatic cancer), Hep G2 (human liver cancer cell), Becap37 (human breast cancer cell), and Hela (human cervical cancer cell), all of which are donated by Cancer Research Institute of Zhejiang University, China.
(§4) Obtaining 4000 well-growing human solid tumor cells and inoculating them into wells of a 96-well cell culture plate. The culture medium is DMEM High Glucose cell culture medium containing 10% fetal bovine serum. The plate is placed in a carbon dioxide cell incubator (5% CO2) at 37° C. for 24 hours. After adding the 2-substituted oleanolic acid derivatives of different concentrations and mixing uniformly, the plate is placed in a carbon dioxide cell incubator (5% CO2) at 37° C. and incubated for 72 hours. Then the relative number of the living cells is determined by MTT method. In this experiment, the cell proliferation inhibition rate in control group (not treated with any compound) is set as 0%.

A549 cell line = test: solid tumor cell growth inhibition, MTT; format: cell-based; details: Homo sapiens; for IC50: A549, 72 h; for inhibition at 16 µg/mL: A549, 16 μg/mL compound, 72 h, read-out: IR (cell proliferation inhibition rate)
Experimental: as §3, §4

Becap37 cell line = test: solid tumor cell growth inhibition, MTT; format: cell-based; details: Homo sapiens; for inhibition at 16 µg/mL: Becap37, 16 μg/mL compound, 72 h, read-out: IR (cell proliferation inhibition rate); for IC50: Becap37, 72 h
Experimental: as §3, §4

CNE cell line = test: solid tumor cell growth inhibition, MTT; format: cell-based; details: Homo sapiens, 72 h; for inhibition at 16 µg/mL: 16 μg/mL compound, read-out: IR (cell proliferation inhibition rate)
Experimental: as §3, §4

CaES-17 cell line = test: solid tumor cell growth inhibition, MTT; format: cell-based; details: Homo sapiens, CaEs17; for inhibition at 16 µg/mL: CaES-17, 16 μg/mL compound, 72 h, read-out: IR (cell proliferation inhibition rate); for IC50: CaES-17, 72 h
Experimental: as §3, §4

Hela cell line = test: solid tumor cell growth inhibition, MTT; format: cell-based; details: Homo sapiens, 72 h; for IC50: HeLa; for inhibition at 16 µg/mL: Hela, 16 μg/mL compound, read-out: IR (cell proliferation inhibition rate)
Experimental: as §3, §4

Hep-2 cell line = test: solid tumor cell growth inhibition, MTT; format: cell-based; details: Homo sapiens; for IC50: HEp-2, 72 h; for inhibition at 16 µg/mL: Hep-2, 16 μg/mL compound, 72 h, read-out: IR (cell proliferation inhibition rate)
Experimental: as §3, §4

MG-63 cell line = test: solid tumor cell growth inhibition, MTT; format: cell-based; details: Homo sapiens; for IC50: MG-63, 72 h; for inhibition at 16 µg/mL: MG-63, 16 μg/mL compound, 72 h, read-out: IR (cell proliferation inhibition rate)
Experimental: as §3, §4

MGC 803 cell line = test: solid tumor cell growth inhibition, MTT; format: cell-based; details: Homo sapiens; for inhibition at 16 µg/mL: MGC 803, 16 μg/mL compound, 72 h, read-out: IR (cell proliferation inhibition rate); for IC50: MGC 803, 72 h
Experimental: as §3, §4

PANC-1 cell line = test: solid tumor cell growth inhibition, MTT; format: cell-based; details: Homo sapiens; for IC50: PANC-1, 72 h; for inhibition at 16 µg/mL: PANC-1, 16 μg/mL compound, 72 h, read-out: IR (cell proliferation inhibition rate)
Experimental: as §3, §4

PC-3 cell line = test: solid tumor cell growth inhibition, MTT; format: cell-based; details: Homo sapiens; for IC50: PC-3, 72 h; for inhibition at 16 µg/mL: PC-3, 16 μg/mL compound, 72 h, read-out: IR (cell proliferation inhibition rate)
Experimental: as §3, §4

RKO cell line = test: solid tumor cell growth inhibition, MTT; format: cell-based; details: Homo sapiens, 72 h; for inhibition at 16 µg/mL: 16 μg/mL compound, read-out: IR (cell proliferation inhibition rate)
Experimental: as §3, §4

SK-OV-3 cell line = test: solid tumor cell growth inhibition, MTT; format: cell-based; details: Homo sapiens; for IC50: SK-OV-3, 72 h; for inhibition at 16 µg/mL: SK-OV-3, 16 μg/mL compound, 72 h, read-out: IR (cell proliferation inhibition rate)
Experimental: as §3, §4

U87 MG cell line = test: solid tumor cell growth inhibition, MTT; format: cell-based; details: Homo sapiens, U-87 MG, 72 h; for inhibition at 16 µg/mL: 16 μg/mL compound, read-out: IR (cell proliferation inhibition rate)
Experimental: as §3, §4

Row | IC50 (H9 cell line) [µg/mL] | IC50 (Jurkat cell line) [µg/mL] | IC50 (K562/adr cell line) [µg/mL] | IC50 (Kasumi-1 cell line) [µg/mL] | IC50 (NB4 cell line) [µg/mL] | IC50 (RPMI8226 cell line) [µg/mL] | IC50 (Hep G2 cell line) [µg/mL] | IC50 (A549 cell line) [µg/mL] | IC50 (Becap37 cell line) [µg/mL] | IC50 (CNE cell line) [µg/mL] | SMILES | inhibition at 16 µg/mL (H9 cell line) [%] | inhibition at 16 µg/mL (Jurkat cell line) [%] | inhibition at 16 µg/mL (K562/adr cell line) [%] | inhibition at 16 µg/mL (Kasumi-1 cell line) [%] | inhibition at 16 µg/mL (NB4 cell line) [%] | inhibition at 16 µg/mL (RPMI8226 cell line) [%] | inhibition at 16 µg/mL (Hep G2 cell line) [%] | inhibition at 16 µg/mL (A549 cell line) [%] | inhibition at 16 µg/mL (Becap37 cell line) [%] | inhibition at 16 µg/mL (CNE cell line) [%] | also measured
1 | 5.67 (≈ 9.1 µM) | 6.15 (≈ 9.87 µM) | 2.41 (≈ 3.87 µM) | 6.5 (≈ 10.4 µM) | 2.84 (≈ 4.56 µM) | 2.08 (≈ 3.34 µM) | 4.89 (≈ 7.85 µM) | 7.7 (≈ 12.4 µM) | > 16 | 8.46 (≈ 13.6 µM) | COC(=O)[C@]12CCC(C)(C)C[C@H]1C1=CC[C@@H]3[C@@]4(C)CC(C(=O)NCCN5CCCCC5)C(=O)C(C)(C)[C@@H]4CC[C@@]3(C)[C@]1(C)CC2 (some centres unmarked) [BS-OA-004] | 98.2 | 97.7 | 98.3 | 99.6 | 100 | 98.3 | 100 | 92 | 43.9 | 97.3 | inhibition at 16 µg/mL (CaES-17 cell line): 81.2%; IC50 (CaES-17 cell line): 8.88 µg/mL (≈ 14.3 µM); IC50 (Hela cell line): 9.28 µg/mL (≈ 14.9 µM); inhibition at 16 µg/mL (Hela cell line): 99.4%; IC50 (Hep-2 cell line): 10.1 µg/mL (≈ 16.2 µM); inhibition at 16 µg/mL (Hep-2 cell line): 85.5%; IC50 (MG-63 cell line): 8.37 µg/mL (≈ 13.4 µM); inhibition at 16 µg/mL (MG-63 cell line): 99%; inhibition at 16 µg/mL (MGC 803 cell line): 98.1%; IC50 (MGC 803 cell line): 7.32 µg/mL (≈ 11.8 µM); IC50 (PANC-1 cell line): 8.77 µg/mL (≈ 14.1 µM); inhibition at 16 µg/mL (PANC-1 cell line): 94.1%; IC50 (PC-3 cell line): 9.91 µg/mL (≈ 15.9 µM); inhibition at 16 µg/mL (PC-3 cell line): 89.8%; inhibition at 16 µg/mL (RKO cell line): 98.9%; IC50 (RKO cell line): 7.4 µg/mL (≈ 11.9 µM); IC50 (SK-OV-3 cell line): 9.14 µg/mL (≈ 14.7 µM); inhibition at 16 µg/mL (SK-OV-3 cell line): 94.9%; inhibition at 16 µg/mL (U87 MG cell line): 98%; IC50 (U87 MG cell line): 10 µg/mL (≈ 16.1 µM)
2 | 3.16 (≈ 5.19 µM) | 2.33 (≈ 3.83 µM) | 1.16 (≈ 1.91 µM) | 3.98 (≈ 6.54 µM) | 2.73 (≈ 4.48 µM) | 0.69 (≈ 1.13 µM) | 2.53 (≈ 4.15 µM) | 2.19 (≈ 3.6 µM) | 5.68 (≈ 9.33 µM) | 3.65 (≈ 5.99 µM) | COC(=O)[C@]12CCC(C)(C)CC1C1=CCC3[C@@]4(C)CC(C(=O)NCCN5CCCC5)C(=O)C(C)(C)C4CC[C@@]3(C)[C@]1(C)CC2 (some centres unmarked) [BS-OA-005] | 96.2 | 98.1 | 100 | 99.8 | 100 | 99.2 | > 96 | 96.8 | 98.6 | 98.6 | inhibition at 16 µg/mL (CaES-17 cell line): 98.9%; IC50 (CaES-17 cell line): 3.34 µg/mL (≈ 5.49 µM); IC50 (Hela cell line): 4.05 µg/mL (≈ 6.65 µM); inhibition at 16 µg/mL (Hela cell line): 98.6%; IC50 (Hep-2 cell line): 5.09 µg/mL (≈ 8.36 µM); inhibition at 16 µg/mL (Hep-2 cell line): 99.2%; IC50 (MG-63 cell line): 2.31 µg/mL (≈ 3.79 µM); inhibition at 16 µg/mL (MG-63 cell line): 99.7%; inhibition at 16 µg/mL (MGC 803 cell line): 99.3%; IC50 (MGC 803 cell line): 2.7 µg/mL (≈ 4.43 µM); IC50 (PANC-1 cell line): 4.54 µg/mL (≈ 7.46 µM); inhibition at 16 µg/mL (PANC-1 cell line): 97.8%; IC50 (PC-3 cell line): 5.11 µg/mL (≈ 8.39 µM); inhibition at 16 µg/mL (PC-3 cell line): 99.2%; inhibition at 16 µg/mL (RKO cell line): 98.7%; IC50 (RKO cell line): 3.19 µg/mL (≈ 5.24 µM); IC50 (SK-OV-3 cell line): 4.23 µg/mL (≈ 6.95 µM); inhibition at 16 µg/mL (SK-OV-3 cell line): 98.3%; inhibition at 16 µg/mL (U87 MG cell line): 100%; IC50 (U87 MG cell line): 2.5 µg/mL (≈ 4.11 µM)
